The source of these data is patent US11278534B2, “Enantiomers of substituted thiazoles as antiviral compounds” (Innovative Molecules GmbH, priority 2017, dated 2022).

≈ marks a conversion by molar mass, not a printed value. Some results are limits rather than exact numbers.

The subject of series [1] is HSV-1. As to the kind of experiment: activity selectivity assay, HSV-1 infected Vero cells. The class given is cell-based. The conditions noted are these: Human alphaherpesvirus 1. The method, then: (§1) HSV (HSV-1 Walki, HSV-1F, HSV-2 MS, HSV clinical isolates and HSV resistant strains) was cultivated on Vero cells (ATCC CCL-81) under the following conditions: The cells were grown in M199 medium (5% foetal calf serum, 2 mM glutamine, 100 IU/mL penicillin, 100 μg/mL streptomycin) in cell culture bottles at 37° C. and 5% CO2. The cells were splitted twice per week (1:4). For the infection, the medium was removed, the cells were washed with Hank's solution, detached using 0.05% trypsin, 0.02% EDTA and incubacted at a density of 4×10^5 cells/mL under the above-mentioned conditions for 24 h. The medium was removed and the virus solution was added at an m.o.i of <0.05 in a volume of 2 mL per 175 cm^2 surface. The infected cells were incubated at 37° C., 5% CO2 for 1 h and then the medium was made up to a volume of 50 mL per 175 cm^2 bottle. […] The virus was released by freezing (−80° C.) and thwawing (37° C.) the infected cultures twice. Cell debris was removed by centrifugation (300 g, 10 min, 4° C.) and the supernatant was frozen in aliquots at −80° C.
(§2) The virus titre was determined using a plaque assay. To this end, Vero cells were seeded in 24-well plates at a density of 4×10^5 cells per well and, after 24 h of incubation (37° C., 5% CO2) infected with 100 μL of inoculum (dilutions (10^−2 to 10^−12) of the virus stock). 1 h after the infection, the medium was removed and the cells were covered with 1 mL of overlay medium (0.5% methylcellulose, 0.22% sodium bicarbonate, 2 mM glutamine, 100 IU/mL penicillin, 100 μg/mL streptomycin, 5% foetal calf serum in MEM-Eagle medium with Earl's salt) and incubated for 3 d in a cell incubator at (37° C., 5% CO2). The cells were then fixated using 4% formaline for 1 h, washed with water, stained with Giemsa for 30 min and then washed and dried. Using a plaque viewer, the virus titre was determined.
(§3) The antiviral action was determined using a patented (DE10235967 and WO2004/015416) and subsequently published activity selectivity assay (G. Kleymann et al. J. Biomol. Screen. 2004; 9, 578) in 96- or 384-well mictrotitre plates using various cell lines of neuronal, lymphoid and epithelial origin, such as, for example, Vero (african green monkey kidney cells), MEF (murine embryonal fibroblasts), HELF (human embryonal fibroblasts), NT2 (human neuronal cell line) or Jurkat (human lymphoid T-cell line). The relevant experimental details of the above mentioned patent and publication to evaluate the antiviral activity of the invention (disclosed compounds) are described below.
(§4) The effect of the substances on the spreading of the cytopathogenic effect was determined in comparision to the reference compound acyclovir-sodium (Zovirax™), a clinically approved anti-herpes chemotherapeutic.
(§5) The compounds (50 mM stock solution dissolved in DMSO) are examined on microtitre plates (for example 96-well flat bottom cell culture plates) at a final concentration of 250 to 0.5 μM or, in case of potent antiviral compounds, 250 to 0.5 nM in 2 to 4 replications (4 to 2 substances per plate). Also examined are toxic and cytostatic effects or precipitation of the compounds. […]

Series [2] deals with HSV-2. As to the kind of experiment: activity selectivity assay, HSV-2 infected Vero cells. The class given is cell-based. The conditions noted are these: Human alphaherpesvirus 2. The method, then:
as §1, §2, §3, §4, §5

A further series relates to HSV-1 ACV resistant. As to the kind of experiment: activity selectivity assay, HSV-1 ACV resistant. The conditions noted are these: Human alphaherpesvirus 1. The class given is cell-based. The method, then:
as §1, §2, §3, §4, §5

Another series concerns the target Human Carboanhydrase II (Homo sapiens, UniProt P00918). As to the kind of experiment: carbonic anhydrase activity assay (pH indicator method). Type of series: biochemical. The settings on record: for carbonic anhydrase inhibition: result in words.
Series [3] deals with HSV-1. As to the kind of experiment: animal model, intranasal HSV-1 infection of mice, survival. The settings on record: Human alphaherpesvirus 1, inhaled or nasal, 120 h; HSV-1, mice, treatment for 5 days; read-out: ED50 (50% of the infected animals survive). Type of series: in vivo, BALB/cABom strain. The method, then: (§6) Animal experiments were performed according to patent WO2001/047904 or subsequent publications (U. A. K. Betz et al. Antimicrob. Agents Chemother. 2002:46, 1766 or G. Kleymann et al. Nat. Med. 2002; 8, 392). The relevant experimental details of the above mentioned patent and publication to evaluate the antiviral activity of the invention (disclosed compounds) in-vivo (animal models) are described below.
(§7) 6 week-old female mice, BALB/cABom strain were obtained from a commercial breeder.
(§8) Infection: The animals were anaesthetized with Et2O in a sealed glass vessel. 50 μL of a dilution of the virus stock (infection dose 5×10^4 PFU (Plaque forming units)) were introduced into the nose of the anaesthetized animals using a pipette. In 90 to 100% of the animals, this infection dose causes death by generalized infection with prominent repiratory and central-nervous symptoms on average after 5 to 8 days.
(§9) 6 hours after infection animals were treated with doses of 0.1-150 mg/kg of body mass, 3 times per day at 7 am, […] (tid) or 2 times per day at 7 am and […] (bid) or once daily at […] (od) for a period of 5 days. […] After the last administration, the animals were monitored further and the time of death was determined.

A short description of series [4]: aqueous solubility (PBS, pH 7.4), shake flask. The class given is physicochemical. The method, then:
The aqueous solubility (PBS, pH 7.4) was determined at Eurofins, Cerep, Panlabs according to C. A. Lipinski et al. Adv. Drug Del. Rev. 1997:46, 3. Measurement of the aqueous solubility was performed according to Lipinski, C. A. et al. Adv. Drug Del. Rev. 1997:46, 3. The relevant information from the literature is described below. […] In addition, chromatographic purity (%) was defined as the peak area of the principal peak relative to the total integrated peak area in the HPLC chromatogram of the calibration standard.

Series [5] has as its system HSV-2. As to the kind of experiment: animal model, intranasal HSV-2 infection of mice, survival. Type of series: in vivo, BALB/cABom strain. The settings on record: Human alphaherpesvirus 2, inhaled or nasal, 120 h; HSV-2, mice, treatment for 5 days; read-out: ED50 (50% of the infected animals survive). The method, then:
as §6, §7, §8, §9

For the compound `Cc1nc(N(C)C(=O)Cc2ccc(-c3cc(F)ccc3F)cc2)sc1[S@@](C)(=N)=O` [Example 7(−), (−)-(S)-2-(2′,5′-Difluoro-[1,1′-biphenyl]-4-yl)-N-methyl-N-(4-methyl-5-(S-methylsulfonimidoyl)thiazol-2-yl)acetamide], the IC50 in the series on HSV-1 [1] is 10 to 50 nM; with HSV-2 [2], 10 to 50 nM; with HSV-1 ACV resistant, 10 to 50 nM; at Human Carboanhydrase II, greater than 10 µM. The carbonic anhydrase inhibition entry at Human Carboanhydrase II is recorded as “no or significantly reduced carbonic anhydrase inhibition”. Further, in the series on HSV-1 [3], the ED50 is less than 5 mg/kg.

With `Cc1nc(N(C)C(=O)Cc2ccc(-c3cc(F)ccc3F)cc2)sc1S(C)(=N)=O` (racemic) [Example 7, 2-(2′,5′-Difluoro-[1,1′-biphenyl]-4-yl)-N-methyl-N-(4-methyl-5-(S-methylsulfonimidoyl)thiazol-2-yl)acetamide], the IC50 was 25 to 100 nM in the series with HSV-1 [1], 25 to 100 nM in the series with HSV-2 [2], 25 to 100 nM in the series on HSV-1 ACV resistant and greater than 10 µM against Human Carboanhydrase II. Further, on Human Carboanhydrase II, the carbonic anhydrase inhibition entry is “no or significantly reduced carbonic anhydrase inhibition”. For the same compound, the solubility at 24 h in series [4] (aqueous buffer, kinetic from dmso stock, pH 7.4, shake flask, 24 h incubation, rt, read-out: Solubility [μM] (PBS, pH 7.4, 200 μM Test concentration)) was 5 µM (≈ 2.18 µg/mL). Besides, the “increase of aqueous solubility in comparison to Example 87 (WO2001/047904)” value in series [4] (pH 7.4) is listed as “at least one order of mangitude”. Also, the 50% effective dose (ED50) in the series with HSV-1 [3] and in the series with HSV-2 [5] was less than 10 mg/kg each time.

For orientation: IC50 means the concentration that inhibits the measured activity by half. Low values mean inhibition by little substance, high ones a need for much substance. The term ED50 denotes the midpoint of the dose-response relation.
